Here are results for 21 compounds from patent publication US9381174B2, “Composition and method for exterminating animal parasite” (Mitsui Chemicals Agro, Inc., priority 2012, dated 2016).

One experiment has as its system Ctenocephalides felis. Briefly: Insecticidal Test for Ctenocephalides felis (treated filter paper contact). Particulars: 50 μg/cm^2 on filter paper; emerged adult fleas; 72 hours of exposure; dead including moribund; in triplicate. It counts as in vivo. How it is done: 0.2 mL of an acetone solution was added dropwise to a round filter paper having a diameter of 4.0 cm that were grasped with tweezers so that each of the compounds was included in an amount of 50 μg/cm^2. After the addition, the filter paper was dried at room temperature for 24 hours for use in the test.
Three 200 mL vials were used per compound. The filter paper treated with a test agent was placed tightly into a lid of the vials so that fleas might be contacted with the paper.
About 20 emerged adult fleas were added to each of the 200 mL vials using an aspirator. Then immediately, the vial was sealed with the lid into which the filter paper that was treated with the agent was tightly placed. It was examined if the fleas that were already dead were added. In a case in which dead fleas were found, the number of the dead fleas was subtracted from the total number.
The vials were turned upside down so that the fleas were always contacted with the filter paper. After 24, 48, and 72 hours of the exposure, the conditions of the fleas were examined and classified into “alive” and “dead (including a moribund condition)” to determine the death rates (in triplicate). The death rates after 72 hours are illustrated in Table 8.
The death rates were calculated as follows: Death Rate (%)=(Number of Dead Fleas including Moribund Fleas)/Total Number of Fleas×100
As for `CCN(C)C(=O)C(=O)Nc1cccc(C(=O)Nc2c(Br)cc(C(F)(C(F)(F)F)C(F)(F)F)cc2OC(F)F)c1` [Compound No. 5-15], the “Death Rate after 72 hours (%)” value worked out at 80.0%.
Same read-out and setting: for `CN(CCF)C(=O)C(=O)Nc1cccc(C(=O)Nc2c(Br)cc(C(F)(C(F)(F)F)C(F)(F)F)cc2C(F)(F)F)c1F` [Compound No. 6-1, 2-fluoro-3-[N-(2-fluoroethyl)-N-methylaminoxalylamino]-N-[2-bromo-4-heptafluoroisopropyl-6-(trifluoromethyl)phenyl]benzamide] the value was 100%; for `CN(CCF)C(=O)C(=O)Nc1cccc(C(=O)Nc2c(I)cc(C(F)(C(F)(F)F)C(F)(F)F)cc2C(F)(F)F)c1F` [Compound No. 6-2, 2-fluoro-3-[N-(2-fluoroethyl)-N-methylaminoxalylamino]-N-[2-iodo-4-heptafluoroisopropyl-6-(trifluoromethyl)phenyl]benzamide], 100%.

The next experiment has as its system Haemaphyxalis Longicornis. Briefly: Dry Film Insecticidal Test for Haemaphyxalis Longicornis. The class given is in vivo. Particulars: 1 ml of 1 ppm acetone solution dried on 9 cm glass petri dish; young ticks; 48 hours of exposure; 25° C.; dead and anguish ticks. The protocol:
1 ml of an acetone solution that was prepared so that the compound was included at a concentration of 1 ppm was added dropwise to a glass petri dish having a diameter of 9 cm. After the addition, the acetone was air-dried for use in the test. About 10 young ticks were added. Then the dish was covered by a plastic film and sealed with a lid. The dish was placed in a constant temperature bath that was set at a temperature of 25° C., at a humidity of 100%, and with a light:dark cycle of 16:8.
After 48 hours of the exposure, the conditions of the ticks were examined and classified into “alive”, “dead (including a moribund condition)”, and “anguish”. The death rates after 48 hours are illustrated in Table 9.
The death rates were calculated as follows: Death Rate (%)=(Number of Dead and Anguish Ticks)/Total Number of Ticks×100
Turning to `CN(CC(F)(F)F)C(=O)C(=O)Nc1cccc(C(=O)Nc2c(Cl)cc(C(F)(C(F)(F)F)C(F)(F)F)cc2C(F)(F)F)c1F` [6-3], the “Death Rate after 48 hours (%)” value is reported as 100%.
The same measure, in the same setting: for `CN(CC(F)(F)F)C(=O)C(=O)N(C)c1cccc(C(=O)Nc2c(Br)cc(C(F)(C(F)(F)F)C(F)(F)F)cc2C(F)(F)F)c1F` [6-4] the value was 100%; for `CN(CC(F)(F)F)C(=O)C(=O)N(C)c1cccc(C(=O)Nc2c(I)cc(C(F)(C(F)(F)F)C(F)(F)F)cc2C(F)(F)F)c1F` [6-5], 100%; for `CN(CC(F)(F)F)C(=O)C(=O)Nc1cccc(C(=O)Nc2c(Br)cc(C(F)(C(F)(F)F)C(F)(F)F)cc2SC(F)(F)F)c1F` [6-6], 100%.
On to `CN(CC(F)(F)F)C(=O)C(=O)Nc1cccc(C(=O)Nc2c(Br)cc(C(F)(C(F)(F)F)C(F)(F)F)cc2[S+]([O-])C(F)(F)F)c1F` (stereo not drawn) [6-7], for which the “Death Rate after 48 hours (%)” value worked out at 100%.
Consider `CN(CC(F)(F)F)C(=O)C(=O)Nc1cccc(C(=O)Nc2c(Br)cc(C(F)(C(F)(F)F)C(F)(F)F)cc2S(=O)(=O)C(F)(F)F)c1F` [6-8], for which the “Death Rate after 48 hours (%)” value is given as 100%.
Same read-out and setting: for `CN(CC(F)(F)F)C(=O)C(=O)Nc1cccc(C(=O)Nc2c(I)cc(C(F)(C(F)(F)F)C(F)(F)F)cc2SC(F)(F)F)c1F` [6-9] the value was 100%; for `CN(CC(F)(F)F)C(=O)C(=O)Nc1cccc(C(=O)Nc2c(I)cc(C(F)(C(F)(F)F)C(F)(F)F)cc2[S+]([O-])C(F)(F)F)c1F` (stereo not drawn) [6-10], 100%; for `CN(CC(F)(F)F)C(=O)C(=O)Nc1cccc(C(=O)Nc2c(I)cc(C(F)(C(F)(F)F)C(F)(F)F)cc2S(=O)(=O)C(F)(F)F)c1F` [6-11], 100%.
Consider `CN(CC(F)(F)F)C(=O)C(=O)Nc1cccc(C(=O)Nc2c(Br)cc(C(F)(C(F)(F)F)C(F)(F)F)cc2OC(F)F)c1F` [6-12], for which the “Death Rate after 48 hours (%)” value was 100%.
Still for that read-out and setting: under `CN(CC(F)(F)F)C(=O)C(=O)N(C)c1cccc(C(=O)Nc2c(Br)cc(C(F)(C(F)(F)F)C(F)(F)F)cc2OC(F)F)c1F` [6-13] stands 100%; under `CCN(C)C(=O)C(=O)N(C)c1cccc(C(=O)Nc2c(I)cc(C(F)(C(F)(F)F)C(F)(F)F)cc2OC(F)F)c1F` [6-14], 100%; under `CCN(C)C(=O)C(=O)N(C)c1cccc(C(=O)Nc2c(I)cc(C(F)(C(F)(F)F)C(F)(F)C(F)(F)F)cc2OC(F)F)c1F` (stereo not drawn) [6-15], 100%.
Still for that read-out and setting: for `CCN(C)C(=O)C(=O)N(C)c1cccc(C(=O)Nc2c(C)cc(C(F)(C(F)(F)F)C(F)(F)C(F)(F)F)cc2OC(F)F)c1F` (stereo not drawn) [6-16] the value was 100%.
Same read-out and setting: under `CN(CC(F)(F)F)C(=O)C(=O)N(C)c1cccc(C(=O)Nc2c(I)cc(C(F)(C(F)(F)F)C(F)(F)C(F)(F)F)cc2SC(F)(F)F)c1F` (stereo not drawn) [6-18] stands 100%.
For the compound `CN(CC(F)(F)F)C(=O)C(=O)N(C)c1cccc(C(=O)Nc2c(I)cc(C(F)(C(F)(F)F)C(F)(F)C(F)(F)F)cc2S(=O)(=O)C(F)(F)F)c1F` (stereo not drawn) [6-19], the “Death Rate after 48 hours (%)” value amounted to 100%.
The same measure, in the same setting: for `CCN(C)C(=O)C(=O)N(C)c1cccc(C(=O)Nc2c(I)cc(C(F)(C(F)(F)F)C(F)(F)C(F)(F)F)cc2S(=O)(=O)C(F)(F)F)c1F` (stereo not drawn) [6-20] the value was 100%; for `CN(CC(F)(F)F)C(=O)C(=O)Nc1cccc(C(=O)Nc2c(Br)cc(C(F)(C(F)(F)F)C(F)(F)F)cc2Br)c1F` [Compound No. 4-66], 100%.
The same measure, in the same setting: under `CCN(C)C(=O)C(=O)Nc1cccc(C(=O)Nc2c(Br)cc(C(F)(C(F)(F)F)C(F)(F)F)cc2OC(F)F)c1` [Compound No. 5-15] stands 100%.
Still for that read-out and setting: under `CN(CCF)C(=O)C(=O)Nc1cccc(C(=O)Nc2c(Br)cc(C(F)(C(F)(F)F)C(F)(F)F)cc2C(F)(F)F)c1F` [Compound No. 6-1, 2-fluoro-3-[N-(2-fluoroethyl)-N-methylaminoxalylamino]-N-[2-bromo-4-heptafluoroisopropyl-6-(trifluoromethyl)phenyl]benzamide] stands 100%.
Turning to `CN(CCF)C(=O)C(=O)Nc1cccc(C(=O)Nc2c(I)cc(C(F)(C(F)(F)F)C(F)(F)F)cc2C(F)(F)F)c1F` [Compound No. 6-2, 2-fluoro-3-[N-(2-fluoroethyl)-N-methylaminoxalylamino]-N-[2-iodo-4-heptafluoroisopropyl-6-(trifluoromethyl)phenyl]benzamide], the “Death Rate after 48 hours (%)” value is 100%.
